{"source": "patent US9801845B2", "about": "(priority 2015, dated 2017)", "key": {"C. perfringens [1]": {"test_system": "C. perfringens", "format": "cell-based, Clostridium perfringens", "details": "TSA-thioglycolate broth, 250 μL of 2% w/v, overnight, anaerobic"}, "C. perfringens [2]": {"test_system": "C. perfringens", "format": "cell-based, Clostridium perfringens", "details": "FIG. 2"}}, "note": "Positions of bridges follow the written chain, without caps; N, C: chain ends. Non-standard residues stand in square brackets, D forms with d. Residues, ends and D or L forms follow the SMILES beside them. *: point of attachment. Ileψ(thiazoline)Cys = CC[C@H](C)[C@H](N)C1=N[C@H](C(=O)*)CS1; dOrn = NCCC[C@@H](N)C(=O)O", "data": [{"smiles": "CC[C@H](C)[C@H](N)C1=N[C@H](C(=O)N[C@@H](CC(C)C)C(=O)N[C@H](CCC(=O)O)C(=O)N[C@H](C(=O)N[C@H]2CCCCNC(=O)[C@H](CC(N)=O)NC(=O)[C@@H](CC(=O)O)NC(=O)[C@H](Cc3cnc[nH]3)NC(=O)[C@@H](Cc3ccccc3)NC(=O)[C@H]([C@@H](C)CC)NC(=O)[C@@H](CCCN)NC2=O)[C@@H](C)CC)CS1", "note": "[Bacitracin] ({Ileψ(thiazoline)Cys}-L[dE]IK[dOrn]I[dF]H[dD]N; lactam 4-C)", "values": [{"measurement": "inhibition of C. perfringens growth (counts)", "setting": "C. perfringens [1]", "result": "complete inhibition"}, {"measurement": "inhibition of the growth of C. perfringens, crop assay", "setting": "C. perfringens [2]; crop supernatant pH 5.34, 250 μL of 2% w/v, 24 h", "result": "complete inhibition"}, {"measurement": "reduction of C. perfringens, ileal assay (in words)", "setting": "C. perfringens [2]; ileal supernatant pH 7.01, 24 h", "result": "almost complete reduction"}, {"measurement": "effectiveness against C. perfringens, proventricular assay", "setting": "C. perfringens [2]; proventricular supernatant pH 2.54, 250 μL of 2% w/v, 24 h", "result": "not effective"}]}]}
